Data taken from patent US7932255B2, “2-aminocarbonyl substituted piperazine or diaza-cyclic compounds as apoptosis protein inhibitors (lap) modulators” (Novartis AG, priority 2006, dated 2011).
Where two headings read alike, the source gives them in different places.

Target: T1, XIAP (Homo sapiens, UniProt P98170)
T1 construct: GST
Assay: Disruption of the Smac peptide-(XIAP)BIR3 protein-protein interaction (Tables 2 and 3)
Type: binding
Description: IC50 values for Series A compounds for XIAP. An assay capable of measuring disruption of the Smac peptide-(XIAP)BIR3 protein-protein interaction is established in the art as described in Example 2. In this assay IAP Inhibitor compounds compete with an immobilized Smac peptide for occupancy of the BIR3 binding pocket of XIAP. The rationale for this strategy results from the mutually exclusive nature of either Caspase 9 or Smac binding to the BIR3 pocket.
Assays are performed and IC50 values are calculated as follows: […]
IC50 values are calculated by logarithmic regression analysis of the percentage inhibition of each compound at 4 concentrations (usually 3- or 10-fold dilution series starting at 10 μM). In each experiment, the actual inhibition by reference compound is used for normalization of IC50 values to the basis of an average value of the reference inhibitor: Normalized IC50=measured IC50 average ref. IC50/measured ref. IC50
Activity determinations of compounds herein using the testing method described herein and as are well known in the art, are used with the following test compounds of formula (I). […] “Activity” as used herein is defined as having IC50 values for IAP target inhibition of less than 10 μM. Specifically, in the table:
IC50 values for Series B compounds are provided for XIAP. Assays are performed as described above using methods well known in the art.

[1] = Series A compounds, Table 2, read-out: XIAP IC50
[2] = Series B compounds, Table 3, read-out: XIXP IC50

T1 sequence (P98170 248-358 limits assumed, species assumed): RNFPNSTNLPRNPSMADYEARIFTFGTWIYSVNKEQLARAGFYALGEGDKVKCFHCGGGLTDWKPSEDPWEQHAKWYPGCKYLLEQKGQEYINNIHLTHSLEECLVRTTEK

Row | Structure (SMILES) | IC50 [1] [µM] | IC50 [2] [µM]
1 | CN[C@@H](C)C(=O)N[C@H](C(=O)N1CCN(Cc2cncs2)C[C@H]1C(=O)NC1CCCc2ccccc21)C(C)C (stereo partly drawn) [Compound 22, (S)-1-[(S)-3-Methyl-2-((S)-2-methylamino-propionylamino)-butyryl]-4-thiazol-5-ylmethyl-piperazine-2-carboxylic acid (1,2,3,4-tetrahydro-naphthalen-1-yl)-amide] | < 10 | 
2 | CN[C@@H](C)C(=O)N[C@H](C(=O)N1CCN(Cc2ccccc2)C[C@H]1C(=O)NC1CCCc2ccccc21)C(C)C (stereo partly drawn) [Compound 14, (S)-4-Benzyl-1-[(S)-3-methyl-2-((S)-2-methylamino-propionylamino)-butyryl]-piperazine-2-carboxylic acid (1,2,3,4-tetrahydro-naphthalen-1-yl)-amide] | < 10 | 
3 | CN[C@@H](C)C(=O)N[C@H](C(=O)N1CCN(CCc2ccccc2)C[C@H]1C(=O)NC1CCCc2ccccc21)C(C)C (stereo partly drawn) [Compound 46, (S)-1-[(S)-3-Methyl-2-((S)-2-methylamino-propionylamino)-butyryl]-4-phenethyl-piperazine-2-carboxylic acid (1,2,3,4-tetrahydro-naphthalen-1-yl)-amide] | < 10 | 
4 | CN[C@@H](C)C(=O)N[C@H](C(=O)N1CCN(Cc2ccccc2)C[C@H]1C(=O)NCc1ccco1)C(C)C [Compound 82, (S)-4-Benzyl-1-[(S)-3-methyl-2-((S)-2-methylamino-propionylamino)-butyryl]-piperazine-2-carboxylic acid (furan-2-ylmethyl)-amide] |  | < 10
5 | CN[C@@H](C)C(=O)N[C@H](C(=O)N1CCN(Cc2ccccc2OC)C[C@H]1C(=O)NC1CCCc2ccccc21)C(C)C (stereo partly drawn) [Compound 37, (S)-4-(2-Methoxy-benzyl)-1-[(S)-3-methyl-2-((S)-2-methylamino-propionylamino)-butyryl]-piperazine-2-carboxylic acid (1,2,3,4-tetrahydro-naphthalen-1-yl)-amide] | < 10 | 
6 | CN[C@@H](C)C(=O)N[C@H](C(=O)N1CCN(Cc2cccc(Oc3ccccc3)c2)C[C@H]1C(=O)NC1CCCc2ccccc21)C(C)C (stereo partly drawn) [Compound 4, (S)-1-[(S)-3-Methyl-2-((S)-2-methylamino-propionylamino)-butyryl]-4-(3-phenoxy-benzyl)-piperazine-2-carboxylic acid (1,2,3,4-tetrahydro-naphthalen-1-yl)-amide] | < 10 | 
7 | CN[C@@H](C)C(=O)N[C@H](C(=O)N1CCN(C(=O)N(C)c2ccccc2)C[C@H]1C(=O)NC1CCCc2ccccc21)C(C)C (stereo partly drawn) [Compound 50, (S)-4-[(S)-3-Methyl-2-((S)-2-methylamino-propionylamino)-butyryl]-piperazine-1,3-dicarboxylic acid 1-(methyl-phenyl-amide) 3-[(1,2,3,4-tetrahydro-naphthalen-1-yl)-amide]] | < 10 | 
8 | CN[C@@H](C)C(=O)N[C@H](C(=O)N1CCN(Cc2ccccc2)C[C@H]1C(=O)NCCc1ccccc1)C(C)C [Compound 61, (S)-4-Benzyl-1-[(S)-3-methyl-2-((S)-2-methylamino-propionylamino)-butyryl]-piperazine-2-carboxylic acid phenethyl-amide] |  | < 10
9 | CN[C@@H](C)C(=O)N[C@H](C(=O)N1CCN(CCC(F)(F)F)C[C@H]1C(=O)NC1CCCc2ccccc21)C(C)C (stereo partly drawn) [Compound 20, (S)-1-[(S)-3-Methyl-2-((S)-2-methylamino-propionylamino)-butyryl]-4-(3,3,3-trifluoro-propyl)-piperazine-2-carboxylic acid (1,2,3,4-tetrahydro-naphthalen-1-yl)-amide] | < 10 | 
10 | CN[C@@H](C)C(=O)N[C@H](C(=O)N1CCN(C(=O)NC2CCCC2)C[C@H]1C(=O)NC1CCCc2ccccc21)C(C)C (stereo partly drawn) [Compound 28, (S)-4-[(S)-3-Methyl-2-((S)-2-methylamino-propionylamino)-butyryl]-piperazine-1,3-dicarboxylic acid 1-cyclopentylamide 3-[(1,2,3,4-tetrahydro-naphthalen-1-yl)-amide]] | < 10 | 
11 | CCCCN1CCN(C(=O)[C@@H](NC(=O)[C@H](C)NC)C(C)C)[C@H](C(=O)NC2CCCc3ccccc32)C1 (stereo partly drawn) [Compound 33, (S)-4-Butyl-1-[(S)-3-methyl-2-((S)-2-methylamino-propionylamino)-butyryl]-piperazine-2-carboxylic acid (1,2,3,4-tetrahydro-naphthalen-1-yl)-amide] | < 10 | 
12 | CN[C@@H](C)C(=O)N[C@H](C(=O)N1CCN(Cc2ccccc2)C[C@H]1C(=O)NCCc1ccccc1F)C(C)C [Compound 67, (S)-4-Benzyl-1-[(S)-3-methyl-2-((S)-2-methylamino-propionylamino)-butyryl]-piperazine-2-carboxylic acid [2-(2-fluoro-phenyl)-ethyl]-amide] |  | < 10
13 | CN[C@@H](C)C(=O)N[C@H](C(=O)N1CCNC[C@H]1C(=O)NC1CCCc2ccccc21)C1CCCCC1 (stereo partly drawn) [Compound 59, (S)-1-[(S)-2-Cyclohexyl-2-((S)-2-methylamino-propionylamino)-acetyl]-piperazine-2-carboxylic acid (1,2,3,4-tetrahydro-naphthalen-1-yl)-amide] | < 10 | 
14 | CN[C@@H](C)C(=O)N[C@H](C(=O)N1CCN(S(=O)(=O)CCC(F)(F)F)C[C@H]1C(=O)NC1CCCc2ccccc21)C(C)C (stereo partly drawn) [Compound 26, (S)-1-[(S)-3-Methyl-2-((S)-2-methylamino-propionylamino)-butyryl]-4-(3,3,3-trifluoro-propane-1-sulfonyl)-piperazine-2-carboxylic acid (1,2,3,4-tetrahydro-naphthalen-1-yl)-amide] | < 10 | 
15 | CN[C@@H](C)C(=O)N[C@H](C(=O)N1CCN(CCOC)C[C@H]1C(=O)NC1CCCc2ccccc21)C(C)C (stereo partly drawn) [Compound 38, (S)-4-(2-Methoxy-ethyl)-1-[(S)-3-methyl-2-((S)-2-methylamino-propionylamino)-butyryl]-piperazine-2-carboxylic acid (1,2,3,4-tetrahydro-naphthalen-1-yl)-amide] | < 10 | 
16 | CN[C@@H](C)C(=O)N[C@H](C(=O)N1CCN(Cc2ccccc2)C[C@H]1C(=O)NCc1ccccc1)C(C)C [Compound 65, (S)-4-Benzyl-1-[(S)-3-methyl-2-((S)-2-methylamino-propionylamino)-butyryl]-piperazine-2-carboxylic acid benzylamide] |  | < 10
17 | CN[C@@H](C)C(=O)N[C@H](C(=O)N1CCN(Cc2ccccc2)C[C@H]1C(=O)NC1CCCc2ccccc21)C(C)C (stereo partly drawn) [Compound 54, (S)-4-Benzyl-1-[(S)-3-methyl-2-((S)-2-methylamino-propionylamino)-butyryl]-piperazine-2-carboxylic acid (1,2,3,4-tetrahydro-naphthalen-1-yl)-amide] | < 10 | 
18 | CN[C@@H](C)C(=O)N[C@H](C(=O)N1CCN(Cc2cccnc2)C[C@H]1C(=O)NC1CCCc2ccccc21)C(C)C (stereo partly drawn) [Compound 3, (S)-1-[(S)-3-Methyl-2-((S)-2-methylamino-propionylamino)-butyryl]-4-pyridin-3-ylmethyl-piperazine-2-carboxylic acid (1,2,3,4-tetrahydro-naphthalen-1-yl)-amide] | < 10 | 
19 | CN[C@@H](C)C(=O)N[C@H](C(=O)N1CCN(C(=O)N2CCCC2)C[C@H]1C(=O)NC1CCCc2ccccc21)C(C)C (stereo partly drawn) [Compound 47, (S)-1-[(S)-3-Methyl-2-((S)-2-methylamino-propionylamino)-butyryl]-4-(pyrrolidine-1-carbonyl)-piperazine-2-carboxylic acid (1,2,3,4-tetrahydro-naphthalen-1-yl)-amide] | < 10 | 
